Measurements as given in paper PMC2858063 (Steroids, 2010).

How the values were obtained:
hu-mPRα = molecular target: T1, hu-mPRα (Homo sapiens, UniProt Q86WK9); experiment: hu-mPRα steroid binding assay; settings: for RBA (Relative Binding Affinity): compared with progesterone (=100), human mPRα; for binding to hu-mPRα (in words): this study, Fig. 1, Table 1
T1 sequence (Q86WK9 1-346): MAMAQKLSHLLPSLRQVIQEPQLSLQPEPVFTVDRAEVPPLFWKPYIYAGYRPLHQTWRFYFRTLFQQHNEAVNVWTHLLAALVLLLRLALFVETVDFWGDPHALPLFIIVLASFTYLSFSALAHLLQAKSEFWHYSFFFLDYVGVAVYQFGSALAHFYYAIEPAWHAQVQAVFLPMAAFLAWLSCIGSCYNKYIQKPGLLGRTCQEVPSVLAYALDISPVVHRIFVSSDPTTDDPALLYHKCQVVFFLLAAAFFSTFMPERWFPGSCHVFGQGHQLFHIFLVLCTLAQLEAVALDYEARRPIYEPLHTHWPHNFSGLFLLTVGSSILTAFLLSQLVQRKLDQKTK

female rabbits = settings: s.c.; cited from earlier work

SMILES: CC[C@H]1CC[C@H]2[C@@H]3CCC4=CC(=O)CC[C@]4(C)[C@H]3CC[C@]12C(C)=O [13-Acetyl-18-norpregn-4-en-3-one]
- RBA (Relative Binding Affinity) (hu-mPRα): <1%
- binding to hu-mPRα (in words) (hu-mPRα): lost all affinity
- progestational activity in comparison with progesterone (female rabbits): 1/4

SMILES: CC(=O)[C@H]1CC[C@H]2[C@@H]3CCC4=CC(=O)CC[C@]4(C)[C@H]3CC[C@]12C(C)=O [13-Acetyl-18-norprogesterone]
- RBA (Relative Binding Affinity) (hu-mPRα): 49.9%
- binding to hu-mPRα (in words) (hu-mPRα): low binding affinities
- progestational activity in comparison with progesterone (female rabbits): 1/3
